In PubChem BioAssay AID250 (DTP/NCI, 2004):
Values joined by “and” are separate entries in the source; they are usually repeats but may differ in a detail not shown here. Identical values can stand only once. Inconclusive results and toxic doses are left out.

Tested on: BDF1 mice, L1210 leukemia sc, survival T/C
Test: NCI In Vivo Anticancer Drug Screen. Data for tumor model L1210 Leukemia (subcutaneous) in B6D2F1 (BDF1) mice
Details: endpoint: median survival time, higher = longer survival
Method in brief: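 Antitumor activity is assessed in mice with transplanted tumors by comparing the treated group (T) with the vehicle control group (C).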

[1] = dose: 8.4 mg/kg/injection, schedule: Q01DX Z (sc), vehicle: water
[2] = dose: 14.0 mg/kg/injection, schedule: Q01DX Z (sc), vehicle: water

For `Nc1nc(=S)c2[nH]cnc2[nH]1`, the T/C (dose: 0.37 mg/kg/injection, schedule: Q01DX009 (sc), vehicle: other) was 100 % of control and 102 % of control, the T/C (dose: 0.47 mg/kg/injection, schedule: Q01DX Z (sc), vehicle: methylcellulose (MC)) was 104 % of control and 110 % of control and the T/C (dose: 0.65 mg/kg/injection, schedule: Q01DX Z (sc), vehicle: methylcellulose (MC)) was 100 % of control. For the same compound, the T/C (dose: 0.75 mg/kg/injection, schedule: Q01DX009 (sc), vehicle: other) was 110 % of control and 111 % of control, the T/C (dose: 0.78 mg/kg/injection, schedule: Q01DX Z (sc), vehicle: methylcellulose (MC)) was 100 % of control and 120 % of control and the T/C (dose: 1.0 mg/kg/injection, schedule: Q01DX Z (sc), vehicle: other) was 100 % of control. For the same compound, the T/C (dose: 1.08 mg/kg/injection, schedule: Q01DX Z (sc), vehicle: methylcellulose (MC)) was 109 % of control, the T/C (dose: 1.3 mg/kg/injection, schedule: Q01DX Z (sc), vehicle: methylcellulose (MC)) was 118 % of control and the T/C (dose: 1.5 mg/kg/injection, schedule: Q01DX009 (sc), vehicle: other) was 150 % of control. For the same compound, the T/C (dose: 1.5 mg/kg/injection, schedule: Q## X009 (sc), vehicle: other) was 150 % of control, the T/C (dose: 1.8 mg/kg/injection, schedule: Q01DX Z (oral), vehicle: methylcellulose (MC)) was 109 % of control and the T/C (dose: 2.0 mg/kg/injection, schedule: Q02DX Z (sc), vehicle: other) was 118 % of control. For the same compound, the T/C (dose: 2.16 mg/kg/injection, schedule: Q01DX Z (oral), vehicle: methylcellulose (MC)) was 109 % of control, the T/C (dose: 2.5 mg/kg/injection, schedule: Q02DX009 (sc), vehicle: other) was 152 % of control and the T/C (dose: 2.5 mg/kg/injection, schedule: Q02DX Z (sc), vehicle: other) was 155 % of control. For the same compound, the T/C (dose: 3.0 mg/kg/injection, schedule: Q01DX009 (sc), vehicle: other) was 150 % of control and 152 % of control and 156 % of control, the T/C (dose: 3.0 mg/kg/injection, schedule: Q01DX Z (oral), vehicle: methylcellulose (MC)) was 118 % of control and the T/C (dose: 3.0 mg/kg/injection, schedule: Q01DX Z (sc), vehicle: methylcellulose (MC)) was 154 % of control. The T/C (dose: 3.0 mg/kg/injection, schedule: Q## X009 (sc), vehicle: other) was 152 % of control, the T/C (dose: 3.6 mg/kg/injection, schedule: Q01DX Z (oral), vehicle: methylcellulose (MC)) was 109 % of control and the T/C (dose: 3.6 mg/kg/injection, schedule: Q01DX Z (sc), vehicle: methylcellulose (MC)) was 150 % of control. The T/C (dose: 4.0 mg/kg/injection, schedule: Q02DX Z (sc), vehicle: other) was 159 % of control, the T/C (dose: 5.0 mg/kg/injection, schedule: Q01DX Z (sc), vehicle: methylcellulose (MC)) was 154 % of control and the T/C (dose: 5.0 mg/kg/injection, schedule: Q02DX009 (sc), vehicle: other) was 165 % of control. For the same compound, the T/C (dose: 5.0 mg/kg/injection, schedule: Q02DX Z (sc), vehicle: other) was 172 % of control, the T/C (dose: 6.0 mg/kg/injection, schedule: Q01DX009 (sc), vehicle: other) was 155 % of control and 162 % of control and the T/C (dose: 6.0 mg/kg/injection, schedule: Q01DX Z (oral), vehicle: methylcellulose (MC)) was 113 % of control. For the same compound, the T/C (dose: 6.0 mg/kg/injection, schedule: Q01DX Z (sc), vehicle: methylcellulose (MC)) was 150 % of control, the T/C (dose: 8.0 mg/kg/injection, schedule: Q01DX Z (sc), vehicle: other) was 154 % of control and the T/C (dose: 8.0 mg/kg/injection, schedule: Q02DX Z (sc), vehicle: other) was 154 % of control. For the same compound, the T/C (dose: 8.4 mg/kg/injection, schedule: Q01DX Z (oral), vehicle: methylcellulose (MC)) was 163 % of control, the T/C (dose: 10.0 mg/kg/injection, schedule: Q01DX Z (oral), vehicle: methylcellulose (MC)) was 118 % of control and the T/C (dose: 10.0 mg/kg/injection, schedule: Q01DX Z (sc), vehicle: methylcellulose (MC)) was 150 % of control. The T/C (dose: 10.0 mg/kg/injection, schedule: Q02DX009 (sc), vehicle: other) was 160 % of control, the T/C (dose: 10.0 mg/kg/injection, schedule: Q02DX Z (sc), vehicle: other) was 166 % of control and the T/C (dose: 16.0 mg/kg/injection, schedule: Q02DX Z (sc), vehicle: other) was 150 % of control. The T/C (dose: 17.0 mg/kg/injection, schedule: Q01DX Z (oral), vehicle: methylcellulose (MC)) was 118 % of control, the T/C (dose: 20.0 mg/kg/injection, schedule: Q02DX Z (sc), vehicle: other) was 150 % of control and the T/C (dose: 28.0 mg/kg/injection, schedule: Q01DX Z (oral), vehicle: methylcellulose (MC)) was 104 % of control. The T/C (dose: 32.0 mg/kg/injection, schedule: Q02DX Z (sc), vehicle: other) was 154 % of control, the T/C (dose: 39.0 mg/kg/injection, schedule: Q01DX Z (oral), vehicle: methylcellulose (MC)) was 154 % of control and the T/C (dose: 40.0 mg/kg/injection, schedule: Q02DX Z (sc), vehicle: other) was 155 % of control. The T/C (dose: 47.0 mg/kg/injection, schedule: Q01DX Z (oral), vehicle: methylcellulose (MC)) was 109 % of control.

For `NC(=O)c1ccc([N+](=O)[O-])cc1`, the T/C (dose: 23.0 mg/kg/injection, schedule: Q01DX Z (sc), vehicle: methylcellulose (MC)) was 90 % of control, the T/C (dose: 39.0 mg/kg/injection, schedule: Q01DX Z (sc), vehicle: methylcellulose (MC)) was 100 % of control and the T/C (dose: 65.0 mg/kg/injection, schedule: Q01DX Z (sc), vehicle: methylcellulose (MC)) was 90 % of control. For the same compound, the T/C (dose: 108.0 mg/kg/injection, schedule: Q01DX Z (sc), vehicle: methylcellulose (MC)) was 90 % of control, the T/C (dose: 180.0 mg/kg/injection, schedule: Q01DX Z (sc), vehicle: methylcellulose (MC)) was 90 % of control and the T/C (dose: 300.0 mg/kg/injection, schedule: Q01DX Z (sc), vehicle: methylcellulose (MC)) was 100 % of control. For the same compound, the T/C (dose: 500.0 mg/kg/injection, schedule: Q01DX Z (sc), vehicle: methylcellulose (MC)) was 100 % of control.

With `CCN(O)C(N)=O` the T/C (dose: 1.0 mg/kg/injection, schedule: Q01DX Z (sc), vehicle: methylcellulose (MC)) was 95 % of control, the T/C (dose: 2.0 mg/kg/injection, schedule: Q01DX Z (sc), vehicle: methylcellulose (MC)) was 104 % of control and the T/C (dose: 4.0 mg/kg/injection, schedule: Q01DX Z (sc), vehicle: methylcellulose (MC)) was 91 % of control. The T/C (dose: 8.0 mg/kg/injection, schedule: Q01DX Z (sc), vehicle: methylcellulose (MC)) was 100 % of control, the T/C (dose: 16.0 mg/kg/injection, schedule: Q01DX Z (sc), vehicle: methylcellulose (MC)) was 100 % of control and the T/C (dose: 31.0 mg/kg/injection, schedule: Q01DX Z (sc), vehicle: methylcellulose (MC)) was 100 % of control. For the same compound, the T/C (dose: 62.0 mg/kg/injection, schedule: Q01DX Z (sc), vehicle: methylcellulose (MC)) was 100 % of control, the T/C (dose: 125.0 mg/kg/injection, schedule: Q01DX Z (sc), vehicle: methylcellulose (MC)) was 100 % of control and the T/C (dose: 250.0 mg/kg/injection, schedule: Q01DX Z (sc), vehicle: methylcellulose (MC)) was 112 % of control.

With `CN(C)c1ccc(/C=C/c2ccnc3ccccc23)cc1` the T/C (dose: 0.65 mg/kg/injection, schedule: Q01DX Z (sc), vehicle: water) was 100 % of control, the T/C (dose: 1.08 mg/kg/injection, schedule: Q01DX Z (sc), vehicle: water) was 100 % of control and the T/C (dose: 1.8 mg/kg/injection, schedule: Q01DX Z (sc), vehicle: water) was 104 % of control. For the same compound, the T/C (dose: 3.0 mg/kg/injection, schedule: Q01DX Z (sc), vehicle: water) was 100 % of control, the T/C (dose: 5.0 mg/kg/injection, schedule: Q01DX Z (sc), vehicle: water) was 100 % of control and the T/C (dose: 6.0 mg/kg/injection, schedule: Q01DX Z (sc), vehicle: water) was 100 % of control. The T/C [1] was 100 % of control, the T/C (dose: 10.0 mg/kg/injection, schedule: Q01DX Z (sc), vehicle: water) was 100 % of control and the T/C [2] was 100 % of control. For the same compound, the T/C (dose: 17.0 mg/kg/injection, schedule: Q01DX Z (sc), vehicle: water) was 100 % of control, the T/C (dose: 28.0 mg/kg/injection, schedule: Q01DX Z (sc), vehicle: water) was 100 % of control and the T/C (dose: 47.0 mg/kg/injection, schedule: Q01DX Z (sc), vehicle: water) was 100 % of control. The T/C (dose: 78.0 mg/kg/injection, schedule: Q01DX Z (sc), vehicle: water) was 110 % of control and the T/C (dose: 130.0 mg/kg/injection, schedule: Q01DX Z (sc), vehicle: water) was 100 % of control.

In the case of `CNC=O`, the T/C (dose: 112.0 mg/kg/injection, schedule: Q01DX Z (sc), vehicle: saline) is reported as 100 % of control, the T/C (dose: 187.0 mg/kg/injection, schedule: Q01DX Z (sc), vehicle: saline) is reported as 104 % of control and the T/C (dose: 311.0 mg/kg/injection, schedule: Q01DX Z (sc), vehicle: saline) is reported as 116 % of control.

For `O=C(Nc1ccc(S(=O)(=O)O)cc1)c1ccc([N+](=O)[O-])cc1`, the T/C [1] was 155 % of control, the T/C [2] was 194 % of control and the T/C (dose: 23.0 mg/kg/injection, schedule: Q01DX Z (sc), vehicle: water) was 150 % of control.

In the case of `CC(C)CN(N)C(N)=O`, the T/C (dose: 78.0 mg/kg/injection, schedule: Q01DX Z (sc), vehicle: saline) is reported as 100 % of control, the T/C (dose: 130.0 mg/kg/injection, schedule: Q01DX Z (sc), vehicle: saline) is reported as 100 % of control and the T/C (dose: 216.0 mg/kg/injection, schedule: Q01DX Z (sc), vehicle: saline) is reported as 100 % of control. The T/C (dose: 360.0 mg/kg/injection, schedule: Q01DX Z (sc), vehicle: saline) was 111 % of control and the T/C (dose: 600.0 mg/kg/injection, schedule: Q01DX Z (sc), vehicle: saline) was 111 % of control.
